Nine cell lines from the supplement of paper PMC10307832 can be followed below.

What all share (experiment): relative viability (nuclei count vs DMSO), 5 days (fraction); higher = more cells survive
Compound in the assay “VX-702 + AZD7762”: NC(=O)c1ccc(N(C(N)=O)c2c(F)cccc2F)nc1-c1ccc(F)cc1F [VX-702] + NC(=O)Nc1cc(-c2cccc(F)c2)sc1C(=O)N[C@H]1CCCNC1 [AZD7762] (partner 0.2 µM)
The essentials: (§1)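 Relative viability divides the nuclei count in treated wells by that in vehicle wells. Lung cancer cell lines were seeded in 1536-well plates, dosed by pin tool the next day, and fixed and stained after 5 days in one step with final 0.05% Triton X-100, 1% formaldehyde and 1 ug/ml Hoechst. Dosing was a single drug or a fixed anchor-drug dose plus five library-drug doses (not always all listed) in √10 steps, and values are medians of duplicate plates imaged at 4×.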

Compound in the assay “Dabrafenib + OSI-027”: CC(C)(C)c1nc(-c2cccc(NS(=O)(=O)c3c(F)cccc3F)c2F)c(-c2ccnc(N)n2)s1 [Dabrafenib] + COc1cccc2cc(-c3nc([C@H]4CC[C@H](C(=O)O)CC4)n4ncnc(N)c34)[nH]c12 [OSI-027] (partner 0.5 µM)
In short, it runs like this:
as §1

Compound in the assay “VX-702 + Lapatinib”: NC(=O)c1ccc(N(C(N)=O)c2c(F)cccc2F)nc1-c1ccc(F)cc1F [VX-702] + CS(=O)(=O)CCNCc1ccc(-c2ccc3ncnc(Nc4ccc(OCc5cccc(F)c5)c(Cl)c4)c3c2)o1 [Lapatinib] (partner 2 µM)
In short, it runs like this: as §1

Compound in the assay “VX-702 + Luminespib”: NC(=O)c1ccc(N(C(N)=O)c2c(F)cccc2F)nc1-c1ccc(F)cc1F [VX-702] + CCNC(=O)c1noc(-c2cc(C(C)C)c(O)cc2O)c1-c1ccc(CN2CCOCC2)cc1 [Luminespib] (partner 0.01 µM)
In short, it runs like this:
as §1

On to HOP-62, for which the relative viability with VX-702 + AZD7762 (first compound 0.02 µM) was 0.95; in the assay with VX-702 + AZD7762 (first compound 0.2 µM), 0.409; with VX-702 + AZD7762 (first compound 0.6325 µM), 1.08; with VX-702 + AZD7762 (first compound 2 µM), 0.465; with Dabrafenib + OSI-027 (first compound 0.003 µM), 0.354; with Dabrafenib + OSI-027 (first compound 0.009487 µM) it was 0.841. The relative viability with Dabrafenib + OSI-027 (first compound 0.03 µM) was determined as 0.778; in the assay with Dabrafenib + OSI-027 (first compound 0.09487 µM) it was 0.631; with Dabrafenib + OSI-027 (first compound 0.3 µM), 0.557; with VX-702 + Lapatinib (first compound 0.02 µM), 1.04; with VX-702 + Lapatinib (first compound 0.2 µM), 0.894; with VX-702 + Lapatinib (first compound 0.6325 µM), 1.08. Also, the relative viability with VX-702 + Lapatinib (first compound 2 µM) came to 0.975; with VX-702 + Luminespib (first compound 0.02 µM) it was 0.926; in the assay with VX-702 + Luminespib (first compound 0.2 µM), 0.899; in the assay with VX-702 + Luminespib (first compound 0.6325 µM) it was 0.916; in the assay with VX-702 + Luminespib (first compound 2 µM), 0.962.
For LC-2-ad, the relative viability with VX-702 + AZD7762 (first compound 0.02 µM) was 0.837; in the assay with VX-702 + AZD7762 (first compound 0.2 µM), 0.854; with VX-702 + AZD7762 (first compound 0.6325 µM), 0.892; with VX-702 + AZD7762 (first compound 2 µM), 0.973; in the assay with Dabrafenib + OSI-027 (first compound 0.009487 µM), 1.14; with Dabrafenib + OSI-027 (first compound 0.03 µM), 0.83. For the same cell line, the relative viability was determined as 0.76 with Dabrafenib + OSI-027 (first compound 0.09487 µM); 0.859 in the assay with Dabrafenib + OSI-027 (first compound 0.3 µM); 0.892 with VX-702 + Lapatinib (first compound 0.02 µM); 0.972 with VX-702 + Lapatinib (first compound 0.2 µM); 1.01 with VX-702 + Lapatinib (first compound 0.6325 µM); 1.03 with VX-702 + Lapatinib (first compound 2 µM). Further, the relative viability with VX-702 + Luminespib (first compound 0.02 µM) is 0.979; with VX-702 + Luminespib (first compound 0.2 µM) it was 1.01; with VX-702 + Luminespib (first compound 0.6325 µM) it was 1.01; with VX-702 + Luminespib (first compound 2 µM) it was 1.36.
For the cell line LCLC-97TM1, the relative viability with VX-702 + AZD7762 (first compound 0.02 µM) is 0.356; with VX-702 + AZD7762 (first compound 0.2 µM), 0.175; with VX-702 + AZD7762 (first compound 0.6325 µM), 0.301; with VX-702 + AZD7762 (first compound 2 µM), 0.301; with Dabrafenib + OSI-027 (first compound 0.003 µM) it was 0.308; with Dabrafenib + OSI-027 (first compound 0.009487 µM), 0.535. In addition, the relative viability with Dabrafenib + OSI-027 (first compound 0.03 µM) was determined as 0.683; with Dabrafenib + OSI-027 (first compound 0.09487 µM), 0.237; with Dabrafenib + OSI-027 (first compound 0.3 µM), 0.237; in the assay with VX-702 + Lapatinib (first compound 0.02 µM), 0.908; with VX-702 + Lapatinib (first compound 0.2 µM) it was 0.786; with VX-702 + Lapatinib (first compound 0.6325 µM) it was 1.3. The relative viability with VX-702 + Lapatinib (first compound 2 µM) came out at 0.947; with VX-702 + Luminespib (first compound 0.02 µM), 0.613; in the assay with VX-702 + Luminespib (first compound 0.2 µM) it was 0.768; with VX-702 + Luminespib (first compound 0.6325 µM) it was 0.747; in the assay with VX-702 + Luminespib (first compound 2 µM), 0.743.
Turning to LK-2, the relative viability in the assay with VX-702 + AZD7762 (first compound 0.02 µM) is 0.312; in the assay with VX-702 + AZD7762 (first compound 0.2 µM), 0.234; in the assay with VX-702 + AZD7762 (first compound 0.6325 µM), 0.343; with VX-702 + AZD7762 (first compound 2 µM), 0.292; with Dabrafenib + OSI-027 (first compound 0.003 µM), 0.174; in the assay with Dabrafenib + OSI-027 (first compound 0.009487 µM) it was 0.238. In addition, the relative viability with Dabrafenib + OSI-027 (first compound 0.03 µM) was determined as 0.155; with Dabrafenib + OSI-027 (first compound 0.09487 µM), 0.248; with Dabrafenib + OSI-027 (first compound 0.3 µM) it was 0.206; with VX-702 + Lapatinib (first compound 0.02 µM) it was 0.986; in the assay with VX-702 + Lapatinib (first compound 0.2 µM) it was 0.727; in the assay with VX-702 + Lapatinib (first compound 0.6325 µM), 0.891. Moreover, the relative viability turned out to be 0.895 with VX-702 + Lapatinib (first compound 2 µM); 0.199 in the assay with VX-702 + Luminespib (first compound 0.02 µM); 0.175 in the assay with VX-702 + Luminespib (first compound 0.2 µM); 0.175 in the assay with VX-702 + Luminespib (first compound 0.6325 µM); 0.178 with VX-702 + Luminespib (first compound 2 µM).
In the case of LOU-NH91, the relative viability with VX-702 + AZD7762 (first compound 0.02 µM) came to 0.766; in the assay with VX-702 + AZD7762 (first compound 0.2 µM) it was 0.753; with VX-702 + AZD7762 (first compound 0.6325 µM), 0.721; in the assay with VX-702 + AZD7762 (first compound 2 µM) it was 0.695; with Dabrafenib + OSI-027 (first compound 0.003 µM), 0.488; with Dabrafenib + OSI-027 (first compound 0.009487 µM), 0.801. The relative viability in the assay with Dabrafenib + OSI-027 (first compound 0.03 µM) came out at 0.666; in the assay with Dabrafenib + OSI-027 (first compound 0.09487 µM), 0.7; in the assay with Dabrafenib + OSI-027 (first compound 0.3 µM) it was 0.75; with VX-702 + Lapatinib (first compound 0.02 µM) it was 0.789; in the assay with VX-702 + Lapatinib (first compound 0.2 µM) it was 0.645; with VX-702 + Lapatinib (first compound 0.6325 µM), 0.639. Further, the relative viability was 0.675 in the assay with VX-702 + Lapatinib (first compound 2 µM); 0.355 with VX-702 + Luminespib (first compound 0.02 µM); 0.3 with VX-702 + Luminespib (first compound 0.2 µM); 0.346 with VX-702 + Luminespib (first compound 0.6325 µM); 0.292 in the assay with VX-702 + Luminespib (first compound 2 µM).
As for LU99A, the relative viability in the assay with VX-702 + AZD7762 (first compound 0.02 µM) was found to be 0.35; in the assay with VX-702 + AZD7762 (first compound 0.2 µM), 0.372; in the assay with VX-702 + AZD7762 (first compound 0.6325 µM), 0.368; in the assay with VX-702 + AZD7762 (first compound 2 µM) it was 0.234; with Dabrafenib + OSI-027 (first compound 0.003 µM), 0.282; with Dabrafenib + OSI-027 (first compound 0.009487 µM) it was 0.307. The relative viability is 0.29 with Dabrafenib + OSI-027 (first compound 0.03 µM); 0.339 in the assay with Dabrafenib + OSI-027 (first compound 0.09487 µM); 0.268 with Dabrafenib + OSI-027 (first compound 0.3 µM); 0.948 in the assay with VX-702 + Lapatinib (first compound 0.02 µM); 1.02 with VX-702 + Lapatinib (first compound 0.2 µM); 0.987 in the assay with VX-702 + Lapatinib (first compound 0.6325 µM). The relative viability with VX-702 + Lapatinib (first compound 2 µM) amounted to 0.982; in the assay with VX-702 + Luminespib (first compound 0.02 µM), 0.27; in the assay with VX-702 + Luminespib (first compound 0.2 µM) it was 0.204; in the assay with VX-702 + Luminespib (first compound 0.6325 µM) it was 0.267; in the assay with VX-702 + Luminespib (first compound 2 µM), 0.189.
As to LXF-289, the relative viability in the assay with VX-702 + AZD7762 (first compound 0.02 µM) turned out to be 1.15; with VX-702 + AZD7762 (first compound 0.2 µM) it was 1.14; in the assay with VX-702 + AZD7762 (first compound 0.6325 µM), 1.15; with VX-702 + AZD7762 (first compound 2 µM), 1.16; with Dabrafenib + OSI-027 (first compound 0.003 µM), 0.337; in the assay with Dabrafenib + OSI-027 (first compound 0.009487 µM), 0.819. Further, the relative viability stood at 0.751 with Dabrafenib + OSI-027 (first compound 0.03 µM); 0.783 with Dabrafenib + OSI-027 (first compound 0.09487 µM); 0.856 with Dabrafenib + OSI-027 (first compound 0.3 µM); 0.965 with VX-702 + Lapatinib (first compound 0.02 µM); 0.876 in the assay with VX-702 + Lapatinib (first compound 0.2 µM); 0.912 with VX-702 + Lapatinib (first compound 0.6325 µM). Also, the relative viability with VX-702 + Lapatinib (first compound 2 µM) amounted to 0.922; with VX-702 + Luminespib (first compound 0.02 µM) it was 0.689; with VX-702 + Luminespib (first compound 0.2 µM), 0.732; in the assay with VX-702 + Luminespib (first compound 0.6325 µM), 0.659; with VX-702 + Luminespib (first compound 2 µM) it was 0.789.
In the case of NCI-H23, the relative viability in the assay with VX-702 + AZD7762 (first compound 0.02 µM) came to 0.294; with VX-702 + AZD7762 (first compound 0.2 µM), 0.35; with VX-702 + AZD7762 (first compound 0.6325 µM), 0.305; with VX-702 + AZD7762 (first compound 2 µM), 0.208; with Dabrafenib + OSI-027 (first compound 0.009487 µM), 0.602; with Dabrafenib + OSI-027 (first compound 0.03 µM) it was 0.471. In addition, the relative viability with Dabrafenib + OSI-027 (first compound 0.09487 µM) came out at 0.435; with Dabrafenib + OSI-027 (first compound 0.3 µM), 0.486; with VX-702 + Lapatinib (first compound 0.02 µM), 1.12; with VX-702 + Lapatinib (first compound 0.2 µM), 1.01; with VX-702 + Lapatinib (first compound 0.6325 µM), 1.04; in the assay with VX-702 + Lapatinib (first compound 2 µM), 1.25. In addition, the relative viability with VX-702 + Luminespib (first compound 0.02 µM) turned out to be 0.196; with VX-702 + Luminespib (first compound 0.2 µM), 0.189; with VX-702 + Luminespib (first compound 0.6325 µM), 0.274; with VX-702 + Luminespib (first compound 2 µM), 0.215.
With NCI-H322M, the relative viability with VX-702 + AZD7762 (first compound 0.02 µM) was 0.544; with VX-702 + AZD7762 (first compound 0.2 µM), 0.558; with VX-702 + AZD7762 (first compound 0.6325 µM), 0.537; with VX-702 + AZD7762 (first compound 2 µM), 0.499; with Dabrafenib + OSI-027 (first compound 0.009487 µM), 0.545; in the assay with Dabrafenib + OSI-027 (first compound 0.03 µM), 0.503. Also, the relative viability was 0.515 with Dabrafenib + OSI-027 (first compound 0.09487 µM); 0.448 with Dabrafenib + OSI-027 (first compound 0.3 µM); 0.58 in the assay with VX-702 + Lapatinib (first compound 0.02 µM); 0.616 with VX-702 + Lapatinib (first compound 0.2 µM); 0.583 with VX-702 + Lapatinib (first compound 0.6325 µM); 0.674 in the assay with VX-702 + Lapatinib (first compound 2 µM). For the same cell line, the relative viability with VX-702 + Luminespib (first compound 0.02 µM) came to 0.856; with VX-702 + Luminespib (first compound 0.2 µM) it was 0.917; with VX-702 + Luminespib (first compound 0.6325 µM), 0.759; with VX-702 + Luminespib (first compound 2 µM) it was 0.88.
